Target: T1, TMABADH.1S (Neurospora crassa, UniProt Q7RYT1)
T1 construct: gene NCU00378; 495 AA short annotation of NCU00378; codon-harmonized synthetic gene in pECXT99A, E. coli DH5alpha crude extract
T1 sequence (Q7RYT1 52-546): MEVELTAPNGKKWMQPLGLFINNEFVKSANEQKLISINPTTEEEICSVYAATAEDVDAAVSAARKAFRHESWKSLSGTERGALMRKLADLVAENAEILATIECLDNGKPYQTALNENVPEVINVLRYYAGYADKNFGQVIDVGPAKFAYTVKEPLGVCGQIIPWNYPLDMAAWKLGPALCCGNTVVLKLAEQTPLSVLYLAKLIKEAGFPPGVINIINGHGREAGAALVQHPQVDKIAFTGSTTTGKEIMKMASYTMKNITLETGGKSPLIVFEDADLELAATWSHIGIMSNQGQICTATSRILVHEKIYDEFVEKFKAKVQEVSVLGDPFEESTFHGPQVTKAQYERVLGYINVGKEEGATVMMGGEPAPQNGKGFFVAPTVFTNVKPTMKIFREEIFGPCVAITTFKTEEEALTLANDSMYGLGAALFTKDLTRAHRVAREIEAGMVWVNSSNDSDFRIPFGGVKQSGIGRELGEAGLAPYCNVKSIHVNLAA
Experiment: NADH formation at […] nm, E. coli crude extract
Format: biochemical
Details: 2 mM NAD+, 0.4 mM TMABA iodide, glycine-NaOH pH 9.5, 30 °C

Structure (SMILES): NC(=O)c1ccc[n+]([C@@H]2O[C@H](COP(=O)(O)OP(=O)(O)OC[C@H]3O[C@@H](n4cnc5c(N)ncnc54)[C@H](O)[C@@H]3O)[C@@H](O)[C@H]2O)c1 [NAD^+]
- NADH formation at 340 nm, E. coli crude extract: co-conversion of NAD^+ to NADH in the TMABADH reaction

Source: paper PMC8085414, “L-Carnitine Production Through Biosensor-Guided Construction of the Neurospora crassa Biosynthesis Pathway in Escherichia coli” (Frontiers in Bioengineering and Biotechnology, 2021)
